Reference: ChEMBL document CHEMBL4145536, “Design, synthesis and biological evaluation of novel bouchardatine analogs as potential inhibitors of adipogenesis/lipogenesis in 3T3-L1 adipocytes” (Eur J Med Chem, 2018)
The source made the active and inactive calls. The calls are words filed in the database; no cut-off is given here.

Legend:
[1] = tested on: 3T3-L1; assay: Cytotoxicity against mouse 3T3L1 cells assessed as decrease in cell viability after 24 hrs by MTT assay; format: cell-based; settings: 3T3-L1, 24 h
[2] = tested on: HepG2; assay: Lipid lowering activity in human HepG2 cells assessed as decrease in triglyceride level at 10 uM for 6 days in presence of oleic acid by oil red o-staining based assay relative to control; format: functional; parameters: scale not given: the % may be the effect or the level left
[3] = tested on: HepG2; assay: Cytotoxicity against human HepG2 cells assessed as decrease in cell viability after 24 hrs by MTT assay; format: cell-based; settings: HepG2, 24 h
[4] = tested on: 3T3-L1; assay: Lipid lowering activity in mouse 3T3L1 cells assessed as decrease in triglyceride level at 10 uM for 6 days by oil red o-staining based assay relative to control; format: functional; parameters: scale not given: the % may be the effect or the level left
[5] = tested on: 3T3-L1; assay: Lipid lowering activity in mouse 3T3L1 cells assessed as decrease in triglyceride level at 10 uM for 6 days by oil red o-staining based microscopic assay; format: functional, cell-based
[6] = tested on: 3T3-L1; assay: Cytotoxicity against mouse 3T3L1 cells assessed as decrease in cell viability up to 10 uM measured up to 72 hrs by LDH release assay; format: cell-based; settings: 3t3-l1, 72 h
[7] = tested on: 3T3-L1; assay: Lipid lowering activity in mouse 3T3L1 cells assessed as decrease in triglyceride level treated 2 days post confluent for 9 days by oil red o-staining based assay; format: functional, cell-based
[8] = species: Mus musculus; assay: Induction of AMPKalpha phosphorylation at Thr172 residue in mouse 3T3L1 cells at 2 mM after 4 hrs by Western blot analysis; format: cell-based

CCN(CC)CCNc1nc(-c2[nH]c3ccccc3c2Cl)nc2ccccc12
IC50 [1]: 19.2 µM
Activity [2]: 15.6%
IC50 [3]: 4.6 µM
Activity [4]: 87.5%

Clc1c(-c2nc(NCCN3CCCC3)c3ccccc3n2)[nH]c2ccccc12
IC50 [1]: 24.5 µM
Activity [2]: 42.5%
IC50 [3]: 2.5 µM
Activity [4]: 60.5%

CCN(CC)CCNc1nc(-c2[nH]c3ccccc3c2Br)nc2ccccc12
IC50 [1]: 15.4 µM
Activity [2]: 50%
IC50 [3]: 6.1 µM
Activity [4]: 86.5%

CN(C)CCCNc1nc(-c2[nH]c3ccccc3c2Cl)nc2ccccc12
IC50 [1]: 18.1 µM
Activity [2]: 35.8%
IC50 [3]: 4.1 µM
Activity [4]: 49.5%

Clc1c(-c2nc(NCCCN3CCCC3)c3ccccc3n2)[nH]c2ccccc12
IC50 [1]: 20.1 µM
Activity [2]: 51.4%
IC50 [3]: 4.7 µM
Activity [4]: 53.8%

CN(C)CCNc1nc(-c2cc3ccccc3[nH]2)nc2ccccc12
IC50 [1]: 12.9 µM
Activity [2]: 0.6%
IC50 [3]: 25.3 µM
Activity [4]: 42.3%

c1ccc2[nH]c(-c3nc(NCCCN4CCCC4)c4ccccc4n3)cc2c1
IC50 [1]: > 50 µM
Activity [2]: 14.2%
IC50 [3]: > 50 µM
Activity [4]: 42.7%

CN(C)CCNc1nc(-c2[nH]c3ccccc3c2Cl)nc2ccccc12
IC50 [1]: 14.8 µM
Activity [2]: 33%
IC50 [3]: 2.7 µM
Activity [4]: 89.1%

CN(C)CCCNc1nc(-c2cc3ccccc3[nH]2)nc2ccccc12
IC50 [1]: 30.3 µM
Activity [2]: 5.8%
IC50 [3]: 44.2 µM
Activity [4]: 48.2%

Clc1nc(-c2[nH]c3ccccc3c2Cl)nc2ccccc12
Activity [5]: Active
IC50 [1]: > 50 µM
Activity [2]: 37.7%
IC50 [3]: > 50 µM
Activity [4]: 45.6%

Clc1c(-c2nc(NCCN3CCOCC3)c3ccccc3n2)[nH]c2ccccc12
IC50 [1]: 37.9 µM
Activity [2]: 46.9%
IC50 [3]: 15.6 µM
Activity [4]: 54.6%

CN(C)CCCNc1nc(-c2[nH]c3ccccc3c2F)nc2ccccc12
IC50 [1]: 22.2 µM
Activity [2]: 32.7%
IC50 [3]: 6 µM
Activity [4]: 45%

c1ccc2[nH]c(-c3nc(NCCN4CCCC4)c4ccccc4n3)cc2c1
IC50 [1]: 20.4 µM
Activity [2]: 13.1%
IC50 [3]: 40.4 µM
Activity [4]: 66.8%

CN(C)CCNc1nc(-c2[nH]c3ccccc3c2F)nc2ccccc12
IC50 [1]: 21.7 µM
Activity [2]: 24.2%
IC50 [3]: 4.2 µM
Activity [4]: 57.3%

OCCNc1nc(-c2[nH]c3ccccc3c2Cl)nc2ccccc12
IC50 [1]: > 50 µM
Activity [2]: 53.1%
IC50 [3]: 20.9 µM
Activity [4]: 38.3%

CN1CCN(CCCNc2nc(-c3[nH]c4ccccc4c3F)nc3ccccc23)CC1
IC50 [1]: 19.8 µM
Activity [2]: 22.5%
IC50 [3]: 5.2 µM
Activity [4]: 42.5%

Brc1c(-c2nc(NCCCN3CCCCC3)c3ccccc3n2)[nH]c2ccccc12
IC50 [1]: 14.9 µM
Activity [2]: 62.3%
IC50 [3]: 6 µM
Activity [4]: 84.9%

CC(C)CNc1nc(-c2[nH]c3ccccc3c2Cl)nc2ccccc12
Activity [5]: Active
IC50 [1]: > 50 µM
Activity [2]: 42.8%
IC50 [3]: 22.8 µM
Activity [4]: 45.7%

Clc1c(-c2nc(NCCCN3CCOCC3)c3ccccc3n2)[nH]c2ccccc12
IC50 [1]: 30.1 µM
Activity [2]: 36.6%
IC50 [3]: 10.3 µM
Activity [4]: 56.6%

Fc1c(-c2nc(Cl)c3ccccc3n2)[nH]c2ccccc12
Activity [5]: Active
IC50 [1]: > 50 µM
Activity [2]: 40.7%
Activity [6]: Non-Toxic
IC50 [3]: > 50 µM
Activity [4]: 71.8%
Activity [7]: Dose-dependent effect
EC50 [7]: 0.92 µM

Brc1c(-c2nc(NCCN3CCCCC3)c3ccccc3n2)[nH]c2ccccc12
IC50 [1]: 13.2 µM
Activity [2]: 62.1%
IC50 [3]: 5.1 µM
Activity [4]: 83.8%

Fc1c(-c2nc(NCCN3CCCC3)c3ccccc3n2)[nH]c2ccccc12
IC50 [1]: 24.5 µM
Activity [2]: 23.6%
IC50 [3]: 7.3 µM
Activity [4]: 64.2%

O=c1[nH]c(-c2[nH]c3ccccc3c2Br)nc2ccccc12
Activity [5]: Active
IC50 [1]: > 50 µM
Activity [2]: 40.4%
IC50 [3]: > 50 µM
Activity [4]: 34.6%

OCCCNc1nc(-c2[nH]c3ccccc3c2F)nc2ccccc12
IC50 [1]: > 50 µM
Activity [2]: 26.3%
IC50 [3]: 30 µM
Activity [4]: 44.4%

Brc1c(-c2nc(NCCCN3CCCC3)c3ccccc3n2)[nH]c2ccccc12
IC50 [1]: 9.6 µM
Activity [2]: 53.1%
IC50 [3]: 3.1 µM
Activity [4]: 81.6%

Brc1c(-c2nc(NCCN3CCCC3)c3ccccc3n2)[nH]c2ccccc12
IC50 [1]: 12.6 µM
Activity [2]: 54.3%
IC50 [3]: 4.3 µM
Activity [4]: 84.2%

O=c1[nH]c(-c2cc3ccccc3[nH]2)nc2ccccc12
IC50 [1]: 43.8 µM
Activity [2]: 14.9%
IC50 [3]: 14.9 µM
Activity [4]: 43.8%

Clc1c(-c2nc(NCCN3CCCCC3)c3ccccc3n2)[nH]c2ccccc12
Activity [5]: Active
IC50 [1]: 41.6 µM
Activity [2]: 52%
IC50 [3]: 18 µM
Activity [4]: 70.3%

CN(C)CCCNc1nc(-c2[nH]c3ccccc3c2Br)nc2ccccc12
Activity [5]: Active
IC50 [1]: 11.6 µM
Activity [2]: 28.3%
IC50 [3]: 4.3 µM
Activity [4]: 59.2%

Clc1nc(-c2[nH]c3ccccc3c2Br)nc2ccccc12
Activity [5]: Active
IC50 [1]: > 50 µM
Activity [2]: 0.9%
IC50 [3]: > 50 µM
Activity [4]: 58.9%

O=Cc1c(-c2nc(NCCN3CCCC3)c3ccccc3n2)[nH]c2ccccc12
Activity [4]: 94.9%

O=c1[nH]c(C2=Nc3ccccc3C2(F)F)nc2ccccc12
Activity [5]: Active
IC50 [1]: > 50 µM
Activity [2]: 24.1%
IC50 [3]: > 50 µM
Activity [4]: 39.4%

CN1CCN(CCCNc2nc(-c3[nH]c4ccccc4c3Cl)nc3ccccc23)CC1
IC50 [1]: 14.4 µM
Activity [2]: 41.2%
IC50 [3]: 2.7 µM
Activity [4]: 83.4%

CN(C)CCNc1nc(-c2[nH]c3ccccc3c2Br)nc2ccccc12
Activity [5]: Active
IC50 [1]: 11.4 µM
Activity [2]: 46.1%
IC50 [3]: 4.1 µM
Activity [4]: 56.4%

NC(=O)c1ncn([C@@H]2O[C@H](CO)[C@@H](O)[C@H]2O)c1N
Activity [8]: Active

CC(C)CCNc1nc(-c2[nH]c3ccccc3c2F)nc2ccccc12
Activity [5]: Active
IC50 [1]: > 50 µM
Activity [2]: 38.7%
IC50 [3]: 28.7 µM
Activity [4]: 37.3%

O=c1[nH]c(-c2[nH]c3ccccc3c2Cl)nc2ccccc12
Activity [5]: Active
IC50 [1]: > 50 µM
Activity [2]: 51.9%
IC50 [3]: > 50 µM
Activity [4]: 35.4%

CN(C)CCCNc1nc(-c2[nH]c3ccccc3c2C=O)nc2ccccc12
Activity [5]: Active
IC50 [1]: 34.4 µM
Activity [2]: 52.1%
IC50 [3]: 27.4 µM
Activity [4]: 82.1%
